Like-named read-outs stand apart in the source and are kept apart here. Numbered stars: 1 amine (or outer) side, 2 acyl side, 3 side chain; on linkers, the order of the positions; unused ones are H or OH. Bridge positions count the residues as written; N and C are the ends. Square brackets hold non-standard residues; d marks the D form. Peptide text beside a SMILES is read from it. mXylylene = c1cc(C[*:1])cc(C[*:2])c1; NMeF = CN[C@@H](Cc1ccccc1)C(=O)O; Tic = O=C(O)[C@@H]1Cc2ccccc2CN1
How the values were obtained:
[1] = Plasma stability assay, mouse plasma; assay type: in vitro ADME; details: mouse, plasma, 37° C., read-out: % intact compound remaining after incubation, Mouse plasma; for remaining at 4 h, 9.8 µM: 4 h incubation
[2] = target: T1, FAP-expressing human WI-38 fibroblasts (Homo sapiens, UniProt Q12884); experiment: Competitive FACS binding assay; details: for pIC50 Category (FACS): competition with 3 nM Cy5-labeled compound, 4° C., 1 hour, WI-38 fibroblasts
T1 construct: FAP-expressing human WI-38 fibroblasts (ECACC) were cultured in EMEM; host or cells: WI-38 human fibroblasts
T1 sequence (Q12884 whole entry): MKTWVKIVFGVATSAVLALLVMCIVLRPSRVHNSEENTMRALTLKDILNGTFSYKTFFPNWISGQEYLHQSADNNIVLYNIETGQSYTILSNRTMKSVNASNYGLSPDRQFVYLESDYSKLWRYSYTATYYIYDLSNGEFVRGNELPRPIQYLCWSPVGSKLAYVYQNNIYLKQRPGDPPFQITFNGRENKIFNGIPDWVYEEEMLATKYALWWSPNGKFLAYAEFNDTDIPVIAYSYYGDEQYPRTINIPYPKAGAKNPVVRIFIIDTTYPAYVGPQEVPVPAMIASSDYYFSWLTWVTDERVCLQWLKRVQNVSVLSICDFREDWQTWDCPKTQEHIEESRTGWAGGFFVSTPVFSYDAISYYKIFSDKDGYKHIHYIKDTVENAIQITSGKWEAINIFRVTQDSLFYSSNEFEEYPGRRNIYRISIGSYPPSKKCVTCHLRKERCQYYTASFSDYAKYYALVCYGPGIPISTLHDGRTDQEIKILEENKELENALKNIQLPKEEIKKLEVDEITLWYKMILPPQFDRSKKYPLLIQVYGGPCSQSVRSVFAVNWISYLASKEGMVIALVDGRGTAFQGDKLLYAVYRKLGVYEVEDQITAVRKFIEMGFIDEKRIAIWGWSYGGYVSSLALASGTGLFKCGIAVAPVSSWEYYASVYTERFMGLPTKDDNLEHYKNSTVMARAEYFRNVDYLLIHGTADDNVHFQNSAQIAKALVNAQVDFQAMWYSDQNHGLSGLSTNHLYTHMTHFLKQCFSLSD
Method: Cells were analyzed in an Attune NxT flow cytometer. […] […].
Cells were analyzed in an Attune NxT flow cytometer. […]

[3] = target: T2, Human recombinant FAP (Homo sapiens, UniProt Q12884); experiment: FRET-based FAP protease activity assay; assay type: biochemical; design: purchased R&D systems 3715-SE; details: for pIC50 Category (activity): FRET-peptide substrate
T2 sequence (Q12884 whole entry): as above

[4] = 24 h incubation, 37° C.
[5] = target: T2, Human recombinant FAP; experiment: Surface plasmon resonance (Biacore) assay; assay type: binding; details: for pKD Category: Biacore, SCK mode, 25° C.
[6] = in vivo; details: swiss nude, mouse, iv
[7] = system: HEK-FAP tumor; details: for uptake in healthy tissues (biodistribution): ^99mTc-labelled, 1-6 h post injection, compared to 3BP-4219 and 3BP-4221; for uptake BPS 1 h / uptake BPS 3 h / uptake BPS 6 h / uptake Tumor 1 h / uptake Tumor 3 h / uptake Tumor 6 h / uptake Kidneys 1 h / uptake Kidneys 3 h / uptake Kidneys 6 h: ^99mTc-labeled, SPECT/CT; for uptake BPS 1 h / uptake BPS 3 h / uptake BPS 6 h: BPS (blood pool surrogate); for uptake BPS 1 h / uptake Tumor 1 h / uptake Kidneys 1 h: 1 h post tracer injection; for uptake BPS 3 h / uptake Tumor 3 h / uptake Kidneys 3 h: 3 h post tracer injection; for uptake BPS 6 h / uptake Tumor 6 h / uptake Kidneys 6 h: 6 h post tracer injection; for uptake Tumor 1 h / uptake Tumor 3 h / uptake Tumor 6 h: HEK-FAP tumor
[8] = Radiochemical purity by HPLC of ^99mTc-labeled compounds; assay type: physicochemical; details: 99Tc-labeled compounds
Method: 100-500 MBq of ^99mTcO4 (in saline) were mixed with 11 μl of 0.5 M phosphate buffer pH 11.5-12.0 and 1.1 μl of 0.1 M trisodium citrate per 100 μl radionuclide solution. […] The mixture was incubated for 30 min at 25-50′° C. At the end of the incubation time, the mixture was neutralized with 3.0 μl 1 M HCl per 10 μl phosphate buffer and TWEEN-20 was added at a final concentration of 0.100.

[9] = system: HEK-FAP tumor; details: ^68Ga-labeled, PET/CT
[10] = pIC50 Category (Activity), FRET-based FAP protease activity assay, recombinant human FAP, 37° C.
[11] = pIC50 Category (activity), Recombinant human FAP

## CSCC[C@@H](NC(C)=O)C(=O)N[C@H]1CSCc2cccc(c2)CSC[C@@H](C(=O)N[C@@H](CC(=O)O)C(=O)N[C@@H](Cc2c[nH]cn2)C(=O)N[C@@H](Cc2ccccc2)C(=O)N[C@@H](CCCNC(=N)N)C(=O)N[C@@H](CC(=O)O)C(N)=O)NC(=O)[C@H](Cc2ccccc2)NC(=O)[C@H](CCC(=O)O)NC(=O)[C@H]([C@@H](C)O)NC(=O)[C@@H]2CCCN2C(=O)[C@@H]2CCCN2C1=O [3BP-3187, Ac-met-[Cys(3MeBn)-Pro-Pro-Thr-Glu-Phe-Cys]-Asp-His-Phe-Arg-Asp-NH2] (Ac-[dM]CPPTEFCDHFRD-NH2; linker 2-8 via mXylylene)
[1]
  remaining at 4 h, 9.8 µM: 100%

## CSCC[C@H](NC(C)=O)C(=O)N[C@H]1CSCc2cccc(c2)CSC[C@@H](C(=O)N[C@@H](CC(=O)O)C(=O)N[C@@H](Cc2c[nH]cn2)C(=O)N(C)[C@@H](Cc2ccccc2)C(=O)N[C@@H](CCCNC(=N)N)C(=O)N[C@@H](CC(=O)O)C(N)=O)NC(=O)[C@H](Cc2ccccc2)NC(=O)[C@H](CCC(=O)O)NC(=O)[C@H]([C@@H](C)O)NC(=O)[C@@H]2CCCN2C(=O)[C@@H]2CCCN2C1=O [3BP-3188, Ac-Met-[Cys(3MeBn)-Pro-Pro-Thr-Glu-Phe-Cys]-Asp-His-Nmf-Arg-Asp-NH2] (Ac-MCPPTEFCDH[NMeF]RD-NH2; linker 2-8 via mXylylene)
[2]
  IC50: < 10 nM
[1]
  remaining at 4 h, 9.8 µM: 97%
[3]; [10]
  IC50: < 10 nM

## CSCC[C@H](NC(C)=O)C(=O)N[C@H]1CSCc2cccc(c2)CSC[C@@H](C(=O)N[C@@H](CC(=O)O)C(=O)N[C@@H](Cc2c[nH]cn2)C(=O)N2Cc3ccccc3C[C@H]2C(=O)N[C@@H](CCCNC(=N)N)C(=O)N[C@@H](CC(=O)O)C(N)=O)NC(=O)[C@H](Cc2ccccc2)NC(=O)[C@H](CCC(=O)O)NC(=O)[C@H]([C@@H](C)O)NC(=O)[C@@H]2CCCN2C(=O)[C@@H]2CCCN2C1=O [3BP-3189, Ac-Met-[Cys(3MeBn)-Pro-Pro-Thr-Glu-Phe-Cys]-Asp-His-Tic-Arg-Asp-NH2] (Ac-MCPPTEFCDH[Tic]RD-NH2; linker 2-8 via mXylylene)
[1]
  remaining at 4 h, 9.8 µM: 100%

## CCCCCC(=O)N[C@H]1CSCc2cccc(c2)CSC[C@@H](C(=O)N[C@@H](CCCCNC(=O)CN2CCN(CC(=O)O)CCN(CC(=O)O)CCN(CC(=O)O)CC2)CC(=O)O)NC(=O)[C@H](Cc2ccccc2)NC(=O)[C@H](CCC(N)=O)NC(=O)[C@H]([C@@H](C)O)NC(=O)[C@@H]2CCCN2C(=O)[C@@H]2CCCN2C1=O [3BP-3397, Hex-[Cys(3MeBn)-Pro-Pro-Thr-Gln-Phe-Cys]-Bhk(DOTA)-OH]
[4]
  % intact compound remaining after incubation, Human plasma: 100% (24 h)

## CCCCCC(=O)N[C@H]1CSCc2cc(cc(CN3CCN(C(=O)CN4CCN(CC(=O)O)CCN(CC(=O)O)CCN(CC(=O)O)CC4)CC3)c2)CSC[C@@H](C(=O)O)NC(=O)[C@H](Cc2ccccc2)NC(=O)[C@H](CCC(N)=O)NC(=O)[C@H]([C@@H](C)O)NC(=O)[C@@H]2CCCN2C(=O)[C@@H]2CCCN2C1=O [3BP-3555, Hex-[Cys(tMeBn(DOTA-PP))-Pro-Pro-Thr-Gln-Phe-Cys]-OH]
[2]
  IC50: 10 to 79.4 nM
[1]; 24 h incubation
  remaining at 24 h, 9.8 µM: 88%
[3]; [10]
  IC50: < 10 nM
[5]
  Kd: < 10 nM

## CCCC[C@H](NC(=O)CCC(=O)NCCCOCCOCCOCCCNC(=O)CN1CCN(C(=O)C(CNCCN)CNCCN)CC1)C(=O)N[C@H]1CSCc2cccc(c2)CSCC(C(=O)O)NC(=O)[C@H](Cc2ccccc2)NC(=O)[C@H](CCC(N)=O)NC(=O)[C@H]([C@@H](C)O)NC(=O)[C@@H]2CCCN2C(=O)[C@@H]2CCCN2C1=O (stereo partly drawn) [3BP-4541, N4Ac-PPAc-Ttds-Nle-[Cys(3MeBn)-Pro-Pro-Thr-Gln-Phe-Cys]-OH]
[6]; blood pool surrogate (BPS)
  tissue uptake at 1 h: 0.48 %ID/g
  tissue uptake at 3 h: 0.2 %ID/g
  tissue uptake at 6 h: 0.06 %ID/g
[6]; kidneys
  tissue uptake at 1 h: 4.02 %ID/g
  tissue uptake at 3 h: 2.41 %ID/g
  tissue uptake at 6 h: 1.01 %ID/g
[6]; tumor
  tissue uptake at 1 h: 8.81 %ID/g
  tissue uptake at 3 h: 9.76 %ID/g
  tissue uptake at 6 h: 7.48 %ID/g
[2]
  IC50: 10 to 79.4 nM
[3]; [11]
  IC50: 10 to 79.4 nM
[7]
  uptake in healthy tissues (biodistribution): decreased uptake in healthy tissues over time
[8]
  HPLC Area % appr. 4 h post end of synthesis: 89.7%
  HPLC Area % at end of synthesis: 95.8%
[5]
  Kd: 10 to 79.4 nM

## CCCC[C@H](NC(=O)CCC(=O)NCCCOCCOCCOCCCNC(=O)CCC(C(=O)O)N1CCN(CC(=O)O)CCN(CC(=O)O)CC1)C(=O)N[C@H]1CSCc2cccc(c2)CSCC(C(=O)O)NC(=O)[C@H](Cc2ccccc2)NC(=O)[C@H](CCC(N)=O)NC(=O)[C@H]([C@@H](C)O)NC(=O)[C@@H]2CCCN2C(=O)[C@@H]2CCCN2C1=O (stereo partly drawn) [3BP-4713, NODAGA-Ttds-Nle-[Cys(3MeBn)-Pro-Pro-Thr-Gln-Phe-Cys]-OH]
[2]
  IC50: 10 to 79.4 nM
[9]; BPS (blood pool surrogate), 0.25 h post tracer injection
  uptake BPS 0.25 h: 2.27 % ID/g
[9]; BPS (blood pool surrogate), 1 h post tracer injection
  uptake BPS 1 h: 0.77 % ID/g
[9]; BPS (blood pool surrogate), 3 h post tracer injection
  uptake BPS 3 h: 0.19 % ID/g
[9]; HEK-FAP tumor, 0.25 h post tracer injection
  uptake Tumor 0.25 h: 3.46 % ID/g
[9]; HEK-FAP tumor, 1 h post tracer injection
  uptake Tumor 1 h: 3.90 % ID/g
[9]; HEK-FAP tumor, 3 h post tracer injection
  uptake Tumor 3 h: 3.21 % ID/g
[9]; kidneys, 0.25 h post tracer injection
  uptake Kidneys 0.25 h: 9.05 % ID/g
[9]; kidneys, 1 h post tracer injection
  uptake Kidneys 1 h: 2.50 % ID/g
[9]; kidneys, 3 h post tracer injection
  uptake Kidneys 3 h: 0.82 % ID/g
[3]; [11]
  IC50: 10 to 79.4 nM

## CCCC[C@H](NC(=O)CCC(=O)NCCCOCCOCCOCCCNC(=O)CN1CCN(C(=O)C(CNCCN)CNCCN)CC1)C(=O)N[C@H]1CSCc2cncc(c2)CSC[C@@H](C(=O)NCCC(=O)O)NC(=O)[C@H](Cc2ccccc2)NC(=O)[C@H](CCC(N)=O)NC(=O)[C@H]([C@@H](C)O)NC(=O)[C@@H]2CCCN2C(=O)[C@@H]2CCCN2C1=O [3BP-4961, N4Ac-PPAc-Ttds-Nle-[Cys(3Lut)-Pro-Pro-Thr-Gln-Phe-Cys]-Bal-OH]
[6]; blood pool surrogate (BPS)
  tissue uptake at 1 h: 0.47 %ID/g
  tissue uptake at 3 h: 0.31 %ID/g
  tissue uptake at 6 h: 0.11 %ID/g
[6]; kidneys
  tissue uptake at 1 h: 2.36 %ID/g
  tissue uptake at 3 h: 1.12 %ID/g
  tissue uptake at 6 h: 0.77 %ID/g
[6]; tumor
  tissue uptake at 1 h: 10.5 %ID/g
  tissue uptake at 3 h: 11.4 %ID/g
  tissue uptake at 6 h: 12.3 %ID/g
[2]
  IC50: < 10 nM
[3]; [11]
  IC50: < 10 nM
[7]
  uptake in healthy tissues (biodistribution): decreased uptake in healthy tissues over time
[8]
  HPLC Area % at end of synthesis: 98.0%
[5]
  Kd: < 10 nM

## N4Ac-PEG6-Nle-[Cys-(3MeBn)-Pro-Pro-Thr-Glu-Phe-Cys]-OH [3BP-4221]
[2]
  pIC50 Category (FACS): B (category B for pIC50 values between 7.1 and 8.0)
[3]; 37° C.
  pIC50 Category (activity): B (category B for pIC50 values between 7.1 and 8.0)
[7]
  uptake BPS 1 h: 0.54 % ID/g
  uptake BPS 3 h: 0.27 % ID/g
  uptake BPS 6 h: 0.16 % ID/g
  uptake Tumor 1 h: 8.51 % ID/g
  uptake Tumor 3 h: 8.32 % ID/g
  uptake Tumor 6 h: 7.97 % ID/g
  uptake Kidneys 1 h: 4.74 % ID/g
  uptake Kidneys 3 h: 3.73 % ID/g
  uptake Kidneys 6 h: 2.56 % ID/g
[8]
  HPLC Area % at end of synthesis: 99.0%
[8]; (5.5 h)
  HPLC Area % appr. 4 h post end of synthesis: 97.4%
[5]
  pKD Category: A (Category A stands for pKD values >8.0)

## N4Ac-Ttds-Nle-[Cys-(3MeBn)-Pro-Pro-Thr-Gln-Phe-Cys]-OH [3BP-4219]
[2]
  pIC50 Category (FACS): B (category B for pIC50 values between 7.1 and 8.0)
[3]; 37° C.
  pIC50 Category (activity): A (pIC50 category A stands for pIC50 values >8.0)
[7]
  uptake BPS 1 h: 0.21 % ID/g
  uptake BPS 3 h: 0.09 % ID/g
  uptake BPS 6 h: 0.07 % ID/g
  uptake Tumor 1 h: 6.80 % ID/g
  uptake Tumor 3 h: 7.62 % ID/g
  uptake Tumor 6 h: 4.52 % ID/g
  uptake Kidneys 1 h: 1.85 % ID/g
  uptake Kidneys 3 h: 1.84 % ID/g
  uptake Kidneys 6 h: 0.55 % ID/g
[8]
  HPLC Area % at end of synthesis: 94.8%
[8]; (5.5 h)
  HPLC Area % appr. 4 h post end of synthesis: 93.8%
[5]
  pKD Category: A (Category A stands for pKD values >8.0)

From US20230212549A1, “COMPOUNDS COMPRISING A […] LIGAND AND USE THEREOF” (priority 2021, published 2023)
